Measured values from ChEMBL document CHEMBL1201862, “PubChem BioAssay data set” (2004).
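Following 48 hours of exposure in 96-well plates, responses at five concentrations were used to interpolate endpoints linearly. GI50 = concentration required for 50% inhibition of growth.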 Calls of active or inactive are those of the source. Rule as the data show it: active = GI50 up to about 1.1 µM and inactive = higher.

Legend:
Assay in all cases: inhibition of tumour cell growth, NCI panel, 48 h
COLO 205 = tested on: COLO 205
DU-145 = tested on: DU-145
EKVX = tested on: EKVX
HOP-62 = tested on: HOP-62
Hs-578T = tested on: Hs-578T
IGROV-1 = tested on: IGROV-1
MDA-N = tested on: MDA-N
NCI-H23 = tested on: NCI-H23
NCI-H460 = tested on: NCI-H460
NCI/ADR-RES = tested on: NCI/ADR-RES
OVCAR-8 = tested on: OVCAR-8
RXF 393 = tested on: RXF 393
SK-MEL-28 = tested on: SK-MEL-28
SNB-19 = tested on: SNB-19
SW-620 = tested on: SW-620
TK-10 = tested on: TK-10
UACC-257 = tested on: UACC-257
UO-31 = tested on: UO-31
HOP-92 = tested on: HOP-92
M14 = tested on: M14

Structure (SMILES) | GI50 (COLO 205) | GI50 (DU-145) | GI50 (EKVX) | GI50 (HOP-62) | GI50 (Hs-578T) | GI50 (IGROV-1) | GI50 (MDA-N) | GI50 (NCI-H23) | GI50 (NCI-H460) | GI50 (NCI/ADR-RES) | GI50 (OVCAR-8) | GI50 (RXF 393) | GI50 (SK-MEL-28) | GI50 (SNB-19) | GI50 (SW-620) | GI50 (TK-10) | GI50 (UACC-257) | GI50 (UO-31) | GI50 (HOP-92) | GI50 (M14)
Cc1nc2ccc(NC3OCC(O)C(O)C3O)cc2c(=O)n1-c1ccccc1 (stereo not given) | > 100 µM (inactive) | > 100 µM (inactive) | > 100 µM (inactive) | > 100 µM (inactive) | > 100 µM (inactive) | > 100 µM (inactive) | > 100 µM (inactive) | > 100 µM (inactive) | > 100 µM (inactive) | > 100 µM (inactive) | > 100 µM (inactive) | > 100 µM (inactive) | > 100 µM (inactive) | > 100 µM (inactive) | > 100 µM (inactive) | > 100 µM (inactive) | > 100 µM (inactive) | > 100 µM (inactive) |  | 
CCNC(=O)c1cc(/C=C/c2ccc([N+](=O)[O-])o2)nc2ccccc12 | 3.8 µM (inactive) | 2.74 µM (inactive) | > 58.2 µM (inactive) | 19.6 µM (inactive) | 63.7 µM (inactive) | 5.69 µM (inactive) |  | 16.9 µM (inactive) | 1.8 µM (inactive) | 51.4 µM (inactive) | 15.8 µM (inactive) | 10.2 µM (inactive) | 5.32 µM (inactive) | 54.7 µM (inactive) | 13.7 µM (inactive) |  | 3.67 µM (inactive) | 50.5 µM (inactive) | > 22.4 µM (inactive) | 2.34 µM (inactive)
Cc1ccc(C(=O)Nc2ccc(CP(=O)(O)O)cc2)cc1NC(=O)c1cccc(NC(=O)Nc2cccc(C(=O)Nc3cc(C(=O)Nc4ccc(CP(=O)(O)O)cc4)ccc3C)c2)c1 | > 100 µM (inactive) | > 100 µM (inactive) | > 100 µM (inactive) | > 100 µM (inactive) | > 100 µM (inactive) | > 100 µM (inactive) | > 100 µM (inactive) | > 100 µM (inactive) | > 100 µM (inactive) | > 100 µM (inactive) | > 100 µM (inactive) | > 100 µM (inactive) | > 100 µM (inactive) | > 100 µM (inactive) | > 100 µM (inactive) | > 100 µM (inactive) | > 100 µM (inactive) | > 100 µM (inactive) |  | > 100 µM (inactive)
COc1ccc(-c2nc3ccccc3s2)cc1OC | 21.9 µM (inactive) |  |  | 67.9 µM (inactive) | 13.4 µM (inactive) |  | 64.4 µM (inactive) | 42.4 µM (inactive) | 20.1 µM (inactive) | 42.5 µM (inactive) | 63.4 µM (inactive) |  | > 100 µM (inactive) | 4.75 µM (inactive) | > 100 µM (inactive) |  | > 100 µM (inactive) | 41.7 µM (inactive) | 6.59 µM (inactive) | 94.4 µM (inactive)
Cc1ccc2nc3c(C)c(Cl)c(=O)cc-3sc2c1 | 29.9 µM (inactive) | 44 µM (inactive) | 38.8 µM (inactive) | 27.5 µM (inactive) | 21.7 µM (inactive) | 37.9 µM (inactive) | 16.9 µM (inactive) | 13.2 µM (inactive) | 23.1 µM (inactive) |  | 11.2 µM (inactive) | 22.9 µM (inactive) | 32.7 µM (inactive) | 24 µM (inactive) | 28.6 µM (inactive) | 56.8 µM (inactive) | 16.6 µM (inactive) | 10.2 µM (inactive) | 34.4 µM (inactive) | 15.2 µM (inactive)
COc1nc(C#CC2(O)CCCCC2)nc(OC)n1 | 14.7 µM (inactive) | 6.79 µM (inactive) | 18.1 µM (inactive) | 34.2 µM (inactive) | 11.5 µM (inactive) | 11.1 µM (inactive) | 10.9 µM (inactive) | 13.7 µM (inactive) | 24.3 µM (inactive) | 23.6 µM (inactive) | 13 µM (inactive) | 12.9 µM (inactive) | 13.9 µM (inactive) | 38.7 µM (inactive) | 8.91 µM (inactive) |  | 14.6 µM (inactive) | 3.82 µM (inactive) |  | 8.65 µM (inactive)
C=C1C(OC2O[C@@H]3O[C@@]4(C)CC[C@H]5[C@H](C)CC[C@@H](C2=C)[C@@]35O4)O[C@@H]2O[C@@]3(C)CC[C@H]4[C@H](C)CC[C@@H]1[C@@]24O3 (stereo not given in full) | > 50 µM (inactive) | > 50 µM (inactive) | > 50 µM (inactive) | > 50 µM (inactive) | > 50 µM (inactive) | > 50 µM (inactive) | > 50 µM (inactive) | > 50 µM (inactive) | > 50 µM (inactive) |  |  | > 50 µM (inactive) | > 50 µM (inactive) | > 50 µM (inactive) | > 50 µM (inactive) | > 50 µM (inactive) | > 50 µM (inactive) | > 50 µM (inactive) | > 50 µM (inactive) | > 50 µM (inactive)
Cc1cccc2cc3c(ccc4ccccc43)c[n+]12 | 13.3 µM (inactive) | 64.6 µM (inactive) | 4.61 µM (inactive) | 7.89 µM (inactive) | 5.38 µM (inactive) | 47.1 µM (inactive) | 37.9 µM (inactive) | 7.6 µM (inactive) | 27.2 µM (inactive) | > 100 µM (inactive) | 15.4 µM (inactive) | 53 µM (inactive) | 14.7 µM (inactive) | 6.87 µM (inactive) | 21.3 µM (inactive) | > 100 µM (inactive) | 14 µM (inactive) | 30.1 µM (inactive) |  | 
NC(=O)NNc1nc2ccccc2c(=O)n1NC(=O)C(=O)Nc1ccc(Cl)cc1Cl |  |  | 66.8 µM (inactive) | > 100 µM (inactive) | > 100 µM (inactive) | 64 µM (inactive) | > 100 µM (inactive) | > 100 µM (inactive) | > 100 µM (inactive) | > 100 µM (inactive) | > 100 µM (inactive) | > 100 µM (inactive) | > 100 µM (inactive) | 81.1 µM (inactive) | > 100 µM (inactive) | > 100 µM (inactive) | > 100 µM (inactive) | > 100 µM (inactive) | > 100 µM (inactive) | > 100 µM (inactive)
Nc1ccc(/N=N/c2ccccc2)cc1 | 46.1 µM (inactive) |  | 28.2 µM (inactive) | 42 µM (inactive) | > 100 µM (inactive) | 29.4 µM (inactive) | 60.3 µM (inactive) | 61.5 µM (inactive) | 29.1 µM (inactive) | 34.8 µM (inactive) | 28 µM (inactive) | 20.1 µM (inactive) | > 100 µM (inactive) | 84.1 µM (inactive) | 51.8 µM (inactive) | 47.9 µM (inactive) | > 100 µM (inactive) | 13.2 µM (inactive) | 30.6 µM (inactive) | 44.4 µM (inactive)
COc1ccc(C(O)(c2ccccc2)c2nccc3ccccc23)cc1 (stereo not given) | 4.47 µM (inactive) | 6.22 µM (inactive) | 11.9 µM (inactive) | 5.28 µM (inactive) | 4.71 µM (inactive) | 9.86 µM (inactive) | 3.2 µM (inactive) | 16.6 µM (inactive) | 5.82 µM (inactive) | 7.05 µM (inactive) | 18.1 µM (inactive) | 3.19 µM (inactive) | 41.4 µM (inactive) | 11.9 µM (inactive) |  | 27.8 µM (inactive) | 7.74 µM (inactive) | 21 µM (inactive) |  | 2.76 µM (inactive)
COc1ccc2[nH]c3c(C)c4ccnc(NCCCN(C)CCCNc5ccc6nnn7c8ccccc8c(=O)c5c67)c4c(C)c3c2c1 | 0.367 µM (active) |  | 1.01 µM (active) | 0.714 µM (active) | 1.38 µM (inactive) | 0.308 µM (active) | 0.583 µM (active) | 0.745 µM (active) | 0.0399 µM (active) | 0.982 µM (active) | 0.297 µM (active) | 1.03 µM (active) | 1.75 µM (inactive) | 0.711 µM (active) | 0.013 µM (active) | 1.07 µM (active) | 1.43 µM (inactive) | 0.603 µM (active) |  | 0.938 µM (active)
CC(C)=CCC12Cc3ccc(O)cc3C(C(C)CN1)C2C (stereo not given) | 36.9 µM (inactive) | > 100 µM (inactive) | > 100 µM (inactive) | > 100 µM (inactive) | 67.6 µM (inactive) | > 100 µM (inactive) |  | > 100 µM (inactive) | 52.5 µM (inactive) | > 100 µM (inactive) | > 100 µM (inactive) | > 100 µM (inactive) | 49.9 µM (inactive) | > 100 µM (inactive) | > 100 µM (inactive) | > 100 µM (inactive) | 27.3 µM (inactive) | 27 µM (inactive) | 44 µM (inactive) | 21 µM (inactive)
Cc1nc(N)c(N2CCN(Cc3ccccc3)CC2)c(O)n1 | > 100 µM (inactive) | > 100 µM (inactive) | > 100 µM (inactive) | > 100 µM (inactive) | > 100 µM (inactive) |  | > 100 µM (inactive) | > 100 µM (inactive) | > 100 µM (inactive) | > 100 µM (inactive) | > 100 µM (inactive) |  | > 100 µM (inactive) | > 100 µM (inactive) | > 100 µM (inactive) | > 100 µM (inactive) | > 100 µM (inactive) | > 100 µM (inactive) |  | > 100 µM (inactive)
CC1(C)CCCCCC(C)(CCCO)C1=O (stereo not given) | > 100 µM (inactive) | > 100 µM (inactive) | > 100 µM (inactive) | > 100 µM (inactive) | > 100 µM (inactive) | > 100 µM (inactive) |  | > 100 µM (inactive) | > 100 µM (inactive) | > 100 µM (inactive) | > 100 µM (inactive) | > 100 µM (inactive) | > 100 µM (inactive) | > 100 µM (inactive) | > 100 µM (inactive) |  | > 100 µM (inactive) | > 100 µM (inactive) | > 100 µM (inactive) | > 100 µM (inactive)
